The test system of data set [1] is EJ-28 (muscle invasive bladder) cancer cells. As to the kind of experiment: MTT cytotoxicity assay, EJ-28. Type of data set: cell-based, human. The following applies: EJ-28 cells, 72 h, ± standard error, read-out: Growth Inhibition Concentration, GI50. As to the method: (§1) The Schiff bases and their organotin(IV) compounds were screened for in vitro cytotoxicity against a panel of 12 cancer cell lines: EJ-28 (muscle invasive bladder), RT-112 (minimum-invasive bladder), HT29 (colon), U87 and SJ-G2 (glioblastoma), MCF-7 (breast), A2780 (ovarian), H460 (lung), A431 (skin), DU145 (prostate), BE2-C (neuroblastoma), MIA (pancreatic) and one normal breast cell line (MCF-10A) using the MTT metabolic assay (Figure 6). After 72 h of incubation, a dose-dependent […] effect towards the cancer cell lines was measured at very low micromolar (µM) concentrations of the compounds. The growth inhibition concentration of the Schiff bases and their organotin(IV) compounds required to inhibit 50% cell proliferation relative to the cells that were treated with DMSO (control) are given in Table 2. The stability of these compounds was assessed in DMSO as well as in a mixture of DMSO-H2O. The absorbance obtained from UV-vis spectroscopy analysis was monitored for 72 h, and an unchanged pattern in the spectra was indicative that the compounds were stable in both the solvent systems tested.
(§2) The inhibitory effect of the synthesised compounds on the growth of bladder (EJ-28 and RT-112) cancer cells was evaluated by MTT assay. […] RT-112 and EJ-28, human bladder cancer cell lines used in this study (ATCC, Manassas, VA, USA) were cultured in RPMI-1640 (High glucose) medium supplemented with 10% fetal bovine serum containing 1% penicillin. The cells were cultured at 37 °C in a humidified atmosphere of 5% CO2 in air. Cells were seeded in 96-well plates at 6000 cells per well for 24 h, then they were treated with different concentrations of compounds for 72 h. The medium was subsequently removed and the wells were washed with 200 µL of phosphate buffer saline. Aliquots of 20 µL of 3-(4,5-dimethylthiazol-2-yl)-2,5-diphenyltetrazolium bromide (MTT) was added to each well and incubated for 4 h at 37 °C. Aliquots of 200 µL of media was then removed from each well and 200 µL of DMSO was added. Optical density (OD) was measured using an ELISA plate reader at 570 nm. Control wells (100% viability), containing media and DMSO, were included in all the experiments. All data points represented an average of triplicate assays. Cytotoxicity was expressed as CD50, i.e., the concentration that reduced the absorbance of treated cells by 50% with reference to the control (untreated cells).

The subject of data set [2] is RT-112 (minimum-invasive bladder) cancer cells. As to the kind of experiment: MTT cytotoxicity assay, RT-112. Type of data set: cell-based, human. The following applies: RT-112 cells, 72 h, ± standard error, read-out: Growth Inhibition Concentration, GI50. As to the method: as §1, §2
For orientation: Tetrazolium assays rely on reduction of a dye to a coloured formazan, in cell work by metabolically active cells.

In data set [3] the test system is HT29 (colon) cancer cells. As to the kind of experiment: MTT growth inhibition assay, HT29. In kind it is cell-based. The following applies: ± standard error, read-out: Growth Inhibition Concentration, GI50. The protocol: as §1
(§3) For HT29 (colon), U87 and SJ-G2 (glioblastoma), MCF-7 (breast), A2780 (ovarian), H460 (lung), A431 (skin), Du145 (prostate), BE2-C (neuroblastoma), MIA (pancreas) cell lines and one normal breast cell line, MCF-10A (normal breast), the MTT assays were performed using the following method:
(§4) Stock solutions were prepared as follows and stored at −20 °C: Trial compounds were stored as 10 mM solutions in DMSO. All cell lines were cultured in a humidified atmosphere 5% CO2 at 37 °C. The cancer cell lines were maintained in Dulbecco’s modified Eagle’s medium (DMEM) (Trace Biosciences) supplemented with 10% foetal bovine serum, 10 mM sodium bicarbonate, penicillin (100 IU/mL), streptomycin (100 μg/mL) and glutamine (4 mM). The normal cell line, MCF-10A was cultured in DMEM:F12 (1:1) cell culture media, 5% heat inactivated horse serum, supplemented with penicillin (50 IU/mL), streptomycin (50 μg/mL), 20mM Hepes, L-glutamine (2 mM), epidermal growth factor (20 ng/mL), hydrocortisone (500 ng/mL), cholera toxin (100 ng/mL) and insulin (10 μg/mL).
(§5) Cells in logarithmic growth were transferred to 96-well plates. Cytotoxicity was determined by plating cells in duplicate in 100 μL medium at a density of 2500–4000 cells/well. On day 0 (24 h after plating), when the cells were in logarithmic growth, 100 μL medium, with or without the test agent, was added to each well. After 72 h drug exposure, growth inhibitory effects were evaluated using the MTT (3-[4,5-dimethylthiazol-2-yl]-2,5-diphenyltetrazolium bromide) assay and absorbance read at 540 nm. Percentage growth inhibition was determined at a fixed drug concentration of 25 μM. A value of 100% was indicative of complete cell growth inhibition. Those analogues showing appreciable percentage growth inhibition underwent further dose-response analysis allowing for the calculation of a GI50 value. This value is the drug concentration at which cell growth is 50% inhibited based on the difference between the optical density values on day 0 and those at the end of drug exposure.

The test system of data set [4] is U87 (glioblastoma) cancer cells. As to the kind of experiment: MTT growth inhibition assay, U87. The following applies: 72 h, ± standard error, read-out: Growth Inhibition Concentration, GI50. In kind it is cell-based. As to the method: as §1, §3, §4, §5
Data set [5] deals with MCF-7 (breast) cancer cells. As to the kind of experiment: MTT growth inhibition assay, MCF-7. In kind it is cell-based. The following applies: 72 h, ± standard error, read-out: Growth Inhibition Concentration, GI50. The protocol: as §1, §3, §4, §5
The test system of data set [6] is A2780 (ovarian) cancer cells. As to the kind of experiment: MTT growth inhibition assay, A2780. In kind it is cell-based. The following applies: 72 h, ± standard error, read-out: Growth Inhibition Concentration, GI50. As to the method:
as §1, §3, §4, §5

A further data set has as its system H460 (lung) cancer cells. As to the kind of experiment: MTT growth inhibition assay, H460. In kind it is cell-based. The following applies: ± standard error, read-out: Growth Inhibition Concentration, GI50. The protocol: as §1, §3, §4, §5
Another data set concerns A431 (skin) cancer cells. As to the kind of experiment: MTT growth inhibition assay, A431. In kind it is cell-based. The following applies: ± standard error, read-out: Growth Inhibition Concentration, GI50. As to the method: as §1, §3, §4, §5
Data set [7] relates to Du145 (prostate) cancer cells. As to the kind of experiment: MTT growth inhibition assay, Du145. In kind it is cell-based. The following applies: ± standard error, read-out: Growth Inhibition Concentration, GI50. The protocol: as §1, §3, §4, §5
For data set [8], the system named is BE2-C (neuroblastoma) cancer cells. As to the kind of experiment: MTT growth inhibition assay, BE2-C. Type of data set: cell-based. The following applies: 72 h, ± standard error, read-out: Growth Inhibition Concentration, GI50. As to the method: as §1, §3, §4, §5
Data set [9] concerns SJ-G2 (glioblastoma) cancer cells. As to the kind of experiment: MTT growth inhibition assay, SJ-G2. Type of data set: cell-based. The following applies: MTT, 72 h, ± standard error, read-out: Growth Inhibition Concentration, GI50. The protocol:
as §1, §3, §4, §5

Data set [10] has as its system MIA (pancreatic) cancer cells. As to the kind of experiment: MTT growth inhibition assay, MIA. Type of data set: cell-based. The following applies: 72 h, ± standard error, read-out: Growth Inhibition Concentration, GI50. The protocol:
as §1, §3, §4, §5

The test system of data set [11] is MCF-10A (normal breast) cell line. As to the kind of experiment: MTT growth inhibition assay, MCF10A. In kind it is cell-based. The following applies: Homo sapiens, MCF-10A, MCF10A normal breast cells, 72 h, ± standard error, read-out: Growth Inhibition Concentration, GI50. The protocol: as §1, §3, §4, §5
Data set [12] concerns B-DNA (PDB ID: 1BNA) dodecamer d(CGCGAATTCGCG)2. Further details: method as in PMID 27649452. The following applies: comparison value for cisplatin; cited from earlier work.
The mark [13] stands for this setting: Homo sapiens, MCF7, MCF-7 cells.

The structures appear in SMILES notation. Where two headings read alike, the source gives them in different places.

A word on the melting point: it is the temperature, or range, at which the solid turns liquid. Take `COc1cccc(/C=N/NC(=S)SCc2ccccc2C)c1O` [S2MoVaH, S-2-Methybenzyl-β-N-(2-hydroxy-3-methoxybenzylmethylene) Dithiocarbazate]: the melting point was 180 to 183 °C. For the same molecule, the GI50 in [1] (Homo sapiens) amounted to 3.4 ± 0.47 µM. The GI50 in data set [2] (Homo sapiens) stood at 4.6 ± 0.45 µM. Besides, the GI50 in [3] (Homo sapiens, HT-29, 72 h) was determined as 3.9 ± 0.71 µM. Further, in data set [4] (Homo sapiens, U-87 MG), the GI50 is 4.3 ± 0.3 µM. Further, in [5] (setting [13]), the GI50 came to 2.7 ± 0.21 µM. In addition, the GI50 in [6] (Homo sapiens) was 3.2 ± 0.15 µM. In addition, the GI50 in the data set with H460 (lung) cancer cells (Homo sapiens, NCI-H460, 72 h) is 4.3 ± 0.12 µM. For the same molecule, the GI50 with A431 (skin) cancer cells (Homo sapiens, A-431, 72 h) came to 3.8 ± 0.03 µM. Besides, the GI50 in data set [7] (Homo sapiens, DU-145, 72 h) turned out to be 4.1 ± 0.09 µM. Moreover, the GI50 in data set [8] (Homo sapiens, BE(2)-C) came out at 3.1 µM. The GI50 in data set [9] stood at 3 ± 0.09 µM. The GI50 in data set [10] (Pancreatic cancer cell) came to 4.9 ± 0.37 µM. Further, the GI50 in [11] stood at 3.1 ± 0.07 µM.
Regarding `COc1cccc(/C=N/NC(=S)SCc2ccccc2)c1O` [SBoVaH, S-Benzyl-β-N-(2-hydroxy-3-methoxybenzylmethylene) Dithiocarbazate], the melting point lay within 173 to 174 °C. Further, the GI50 in data set [1] (Homo sapiens) was determined as 3.1 ± 0.2 µM. Also, the GI50 in [2] (Homo sapiens) is 3.7 ± 0.57 µM. Besides, in data set [3] (Homo sapiens, HT-29, 72 h), the GI50 turned out to be 2.2 ± 0.033 µM. The GI50 in data set [4] (Homo sapiens, U-87 MG) was found to be 3.1 ± 0.26 µM. Moreover, the GI50 in data set [5] (setting [13]) was found to be 2.5 ± 0.12 µM. The GI50 in [6] (Homo sapiens) worked out at 3 ± 0.06 µM. The GI50 in the data set on H460 (lung) cancer cells (Homo sapiens, NCI-H460, 72 h) came out at 3.3 ± 0.21 µM. For the same molecule, the GI50 in the data set with A431 (skin) cancer cells (Homo sapiens, A-431, 72 h) was determined as 3 ± 0.15 µM. Besides, the GI50 in data set [7] (Homo sapiens, DU-145, 72 h) stood at 3.4 ± 0.3 µM. Also, in data set [8] (Homo sapiens, BE(2)-C), the GI50 amounted to 2.8 ± 0.2 µM. Further, the GI50 in data set [9] amounted to 2.4 ± 0.26 µM. Moreover, the GI50 in [10] (Pancreatic cancer cell) was 4.5 ± 0.25 µM. Besides, the GI50 in data set [11] was 3 ± 0.07 µM.
Take `N.N.[Cl][Pt][Cl]` [Cisplatin, reference compound]: the GI50 in data set [1] stood at 3.97 ± 0.48 µM; in [2] it was 3.56 ± 0.88 µM; in [3] (72 h) it was 11 ± 2 µM; in data set [4], 4 ± 1 µM; in [5] (MCF-7 cells), 6.5 ± 0.8 µM; in data set [6], 1 ± 0.1 µM. In addition, the GI50 was 0.9 ± 0.2 µM with H460 (lung) cancer cells (72 h); 2.4 ± 0.3 µM in the data set with A431 (skin) cancer cells (72 h); 1.2 ± 0.1 µM in data set [7] (72 h); 1.9 ± 0.2 µM in data set [8]; 0.4 ± 0.1 µM in data set [9]; 8 ± 1 µM in data set [10]. Besides, in data set [12], the “lowest binding energy (docking with DNA)” value was -8.65 kcal/mol.
The molecule `COc1cccc(/C=N/NC(=S)SCc2ccc(C)cc2)c1O` [S4MoVaH, S-4-Methybenzyl-β-N-(2-hydroxy-3-methoxybenzylmethylene)dithiocarbazate] gave a melting point of 177 to 178 °C. For the same molecule, the GI50 in [1] (Homo sapiens) was 3.6 ± 0.44 µM. Besides, in [2] (Homo sapiens), the GI50 was 3.2 ± 0.51 µM. The GI50 in data set [3] (Homo sapiens, HT-29, 72 h) turned out to be 8 ± 3.5 µM. Moreover, the GI50 in [4] (Homo sapiens, U-87 MG) turned out to be 3.9 µM. In addition, in data set [5] (setting [13]), the GI50 was found to be 3.5 µM. The GI50 in [6] (Homo sapiens) is 3.1 ± 0.4 µM. Besides, the GI50 in the data set on H460 (lung) cancer cells (Homo sapiens, NCI-H460, 72 h) was found to be 5.5 ± 0.73 µM. For the same molecule, the GI50 in the data set on A431 (skin) cancer cells (Homo sapiens, A-431, 72 h) is 4.2 ± 0.74 µM. Also, the GI50 in data set [7] (Homo sapiens, DU-145, 72 h) stood at 5.4 ± 0.23 µM. In addition, the GI50 in data set [8] (Homo sapiens, BE(2)-C) was determined as 3.6 ± 0.27 µM. Besides, in data set [9], the GI50 was determined as 3.3 ± 0.87 µM. Further, in data set [10] (Pancreatic cancer cell), the GI50 came to 11 ± 2.3 µM. In data set [11], the GI50 is 3.5 ± 0.23 µM.
